Measured values: ChEMBL document CHEMBL5360605, “Novel Lactams as CBL-B Inhibitors for Treating Cancer” (ACS Med Chem Lett, 2023)
pIC50: −log10 of the molar value.

Target: E3 ubiquitin-protein ligase CBL-B (Homo sapiens, UniProt Q13191)
Assay: Inhibition of biotin-tagged Cbl-b (unknown origin) assessed as reduction in LCK ubiquitination using His-LCK as substrate preincubated for 60 mins followed by substrate addition in presence of ATP, MgCl2 and measured after 90 mins by HTRF assay

E3 ubiquitin-protein ligase CBL-B, sequence (Q13191 whole entry): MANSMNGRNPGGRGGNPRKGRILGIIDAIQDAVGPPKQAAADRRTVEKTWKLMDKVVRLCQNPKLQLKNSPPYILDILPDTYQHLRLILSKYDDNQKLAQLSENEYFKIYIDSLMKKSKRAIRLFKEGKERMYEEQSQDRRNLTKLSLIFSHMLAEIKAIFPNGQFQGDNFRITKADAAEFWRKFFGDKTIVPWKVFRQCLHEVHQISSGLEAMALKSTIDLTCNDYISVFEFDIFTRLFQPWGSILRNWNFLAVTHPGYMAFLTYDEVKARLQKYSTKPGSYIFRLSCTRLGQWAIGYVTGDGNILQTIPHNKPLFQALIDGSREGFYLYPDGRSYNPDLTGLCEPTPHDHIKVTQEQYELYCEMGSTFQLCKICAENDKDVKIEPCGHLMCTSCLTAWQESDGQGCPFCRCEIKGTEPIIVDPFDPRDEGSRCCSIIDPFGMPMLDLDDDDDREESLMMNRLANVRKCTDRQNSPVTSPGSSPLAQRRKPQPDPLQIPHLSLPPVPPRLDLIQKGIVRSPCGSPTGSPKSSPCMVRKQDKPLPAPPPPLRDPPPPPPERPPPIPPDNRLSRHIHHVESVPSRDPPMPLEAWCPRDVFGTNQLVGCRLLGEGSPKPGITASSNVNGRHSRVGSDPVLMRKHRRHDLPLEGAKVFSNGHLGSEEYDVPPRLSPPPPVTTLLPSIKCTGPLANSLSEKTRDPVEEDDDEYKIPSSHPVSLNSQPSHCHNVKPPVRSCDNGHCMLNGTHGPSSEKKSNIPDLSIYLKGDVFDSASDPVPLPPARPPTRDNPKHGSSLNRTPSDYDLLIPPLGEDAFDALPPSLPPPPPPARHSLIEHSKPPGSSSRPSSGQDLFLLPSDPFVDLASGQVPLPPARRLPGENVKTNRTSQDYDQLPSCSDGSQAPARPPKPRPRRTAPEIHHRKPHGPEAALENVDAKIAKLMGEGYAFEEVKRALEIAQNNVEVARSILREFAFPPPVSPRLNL

Row | pIC50 | Compound
1 | 8.52 | Cn1cnnc1C(c1cccc(N2Cc3c(cc(CNC4(C)CCC4)cc3C(F)(F)F)C2=O)c1)[C@H]1C[C@H](CC#N)C1 (stereo partly specified)
2 | 8.40 | CO[C@H]1C[C@](c2cccc(N3Cc4c(cc(CNC5CC6CC6C5)cc4C(F)(F)F)C3=O)c2)(c2nncn2C)C1 (stereo partly specified)
3 | 8.40 | C[C@H](NC1(C)CCC1)c1cc2c(c(C(F)(F)F)c1)CN(c1cccc([C@@H](c3nncn3C)C3COC3)c1)C2=O
4 | 8.40 | CCOc1cc([C@]2(c3nncn3C)C[C@@H](C)C2)cc(N2Cc3c(cc(CNC4(C)CCC4)cc3C(F)(F)F)C2=O)n1
5 | 8.40 | Cn1cnnc1[C@]1(c2cccc(N3Cc4c(cc(CNC5(C)CCC5)cc4C(F)(F)F)C3=O)c2)C[C@H](Cl)C1
6 | 8.40 | C[C@H](NC1(C)CCC1)c1cc(Cl)c2c(c1)C(=O)N(c1cccc([C@]3(c4nncn4C)C[C@H](F)C3)c1)C2
